Earlier results on ten compounds are cited in publication PMC9186412, “Rational Framework for the Design of Trp- and Arg-Rich Peptide Antibiotics Against Multidrug-Resistant Bacteria” (Frontiers in Microbiology, 2022).

Read-outs that look alike come from different tables or passages of the source.

In data set [1] the test system is CDC AR isolates. Set-up: key: S (green), susceptible; I (blue), intermediate; R (red), resistant. The following applies: data provided by the CDC, ref CDC, cited from earlier work.
The subject of data set [2] is CDC AR isolates. Set-up: key: S (green), susceptible; I (blue), intermediate; R (red), resistant. Conditions: data provided by the CDC, ref CDC, cited from earlier work. From the text: Supplement Table_3.XLSX, sheet "CDC AR isolates profiles" | column: G(-) strains
This is another data set of the same source.

[3] abbreviates: Enterococcus faecium EF673, CDC AR isolate.
Where [4] appears, read: Staphylococcus aureus SA461, CDC AR isolate.
Setting [5] is: Acinetobacter baumannii AB273, CDC AR isolate.
Setting [6] is: Acinetobacter baumannii AB274, CDC AR isolate.
The mark [7] stands for this setting: Acinetobacter baumannii AB275, CDC AR isolate.
Where [8] appears, read: Acinetobacter baumannii AB276, CDC AR isolate.
[9] abbreviates: Enterobacter cloacae E62, CDC AR isolate.
Where [10] appears, read: Enterobacter cloacae E544, CDC AR isolate.
Where [11] appears, read: Enterobacter cloacae E545, CDC AR isolate.
Where [12] appears, read: Enterobacter cloacae E546, CDC AR isolate.
[13] abbreviates: Enterococcus faecium EF500, CDC AR isolate.
Where [14] appears, read: Enterococcus faecium EF671, CDC AR isolate.
[15] abbreviates: Enterococcus faecium EF672, CDC AR isolate.
[16] abbreviates: Escherichia coli EC541, CDC AR isolate.
Where [17] appears, read: Escherichia coli EC543, CDC AR isolate.
The mark [18] stands for this setting: Escherichia coli EC544, CDC AR isolate.
[19] abbreviates: Escherichia coli EC549, CDC AR isolate.
[20] abbreviates: Klebsiella pneumoniae KP542, CDC AR isolate.
Where [21] appears, read: Klebsiella pneumoniae KP548, CDC AR isolate.
[22] abbreviates: Klebsiella pneumoniae KP550, CDC AR isolate.
The mark [23] stands for this setting: Klebsiella pneumoniae KP552, CDC AR isolate.
Where [24] appears, read: Staphylococcus aureus SA462, CDC AR isolate.
Where [25] appears, read: Staphylococcus aureus SA463, CDC AR isolate.
[26] abbreviates: Staphylococcus aureus SA561, CDC AR isolate.

For `C[C@H]1COc2c(N3CCN(C)CC3)c(F)cc3c(=O)c(C(=O)O)cn1c23` [Levofloxacin], the Antibiotic susceptibility profile entry in the data set on CDC AR isolates [1] (setting [3]) is recorded as “S”; with CDC AR isolates [1] (setting [4]), “R”; in the data set with CDC AR isolates [2] (setting [5]), “R”; with CDC AR isolates [2] (setting [6]) it was “R”; in the data set with CDC AR isolates [2] (setting [7]) it was “R”; with CDC AR isolates [2] (setting [8]), “R”. Also, the Antibiotic susceptibility profile entry is reported as “R” with CDC AR isolates [2] (setting [9]); “R” with CDC AR isolates [2] (setting [10]); “S” in the data set on CDC AR isolates [2] (setting [11]); “R” with CDC AR isolates [2] (setting [12]); “R” in the data set with CDC AR isolates [2] (setting [13]); “S” in the data set with CDC AR isolates [2] (setting [14]). For the same compound, the Antibiotic susceptibility profile entry in the data set with CDC AR isolates [2] (setting [15]) is on record as “S”; in the data set with CDC AR isolates [2] (setting [16]), “R”; with CDC AR isolates [2] (setting [17]), “R”; in the data set on CDC AR isolates [2] (setting [18]), “R”; in the data set with CDC AR isolates [2] (setting [19]), “R”; with CDC AR isolates [2] (setting [20]), “R”. Besides, the Antibiotic susceptibility profile entry with CDC AR isolates [2] (setting [21]) is “R”; in the data set with CDC AR isolates [2] (setting [22]) it was “R”; in the data set with CDC AR isolates [2] (setting [23]), “R”; in the data set on CDC AR isolates [2] (Pseudomonas aeruginosa PA229, CDC AR isolate), “R”; in the data set on CDC AR isolates [2] (Pseudomonas aeruginosa PA230, CDC AR isolate), “R”; in the data set on CDC AR isolates [2] (Pseudomonas aeruginosa PA231, CDC AR isolate), “R”. Further, the Antibiotic susceptibility profile result in the data set on CDC AR isolates [2] (Pseudomonas aeruginosa PA232, CDC AR isolate) was “R”; in the data set on CDC AR isolates [2] (Pseudomonas aeruginosa PA239, CDC AR isolate), “R”; with CDC AR isolates [2] (setting [24]), “R”; in the data set with CDC AR isolates [2] (setting [25]), “S”; in the data set with CDC AR isolates [2] (setting [26]) it was “R”.

For Penicillin, the Antibiotic susceptibility profile result in the data set on CDC AR isolates [1] (setting [3]) is “S”; with CDC AR isolates [1] (setting [4]), “S”; with CDC AR isolates [2] (setting [13]), “R”; in the data set with CDC AR isolates [2] (setting [14]), “S”; with CDC AR isolates [2] (setting [15]), “S”; in the data set on CDC AR isolates [2] (setting [24]) it was “R”. Moreover, the Antibiotic susceptibility profile entry in the data set with CDC AR isolates [2] (setting [25]) and in the data set with CDC AR isolates [2] (setting [26]) was “R” in each case.

On to `CN[C@H](CC(C)C)C(=O)N[C@H]1C(=O)N[C@@H](CC(N)=O)C(=O)N[C@H]2C(=O)N[C@H]3C(=O)N[C@H](C(=O)N[C@H](C(=O)O)c4cc(O)cc(O)c4-c4cc3ccc4O)[C@H](O)c3ccc(c(Cl)c3)Oc3cc2cc(c3O[C@@H]2O[C@H](CO)[C@@H](O)[C@H](O)[C@H]2O[C@H]2C[C@](C)(N)[C@H](O)[C@H](C)O2)Oc2ccc(cc2Cl)[C@H]1O` [Vancomycin], for which the Antibiotic susceptibility profile result with CDC AR isolates [1] (setting [3]) was “S”; in the data set on CDC AR isolates [1] (setting [4]), “S”; in the data set on CDC AR isolates [2] (setting [13]) it was “S”; with CDC AR isolates [2] (setting [14]) it was “S”; in the data set with CDC AR isolates [2] (setting [15]) it was “S”; with CDC AR isolates [2] (setting [24]), “I”. Moreover, the Antibiotic susceptibility profile entry in the data set on CDC AR isolates [2] (setting [25]) and in the data set on CDC AR isolates [2] (setting [26]) was “S” throughout.

Turning to `CCCCCCCCCC(=O)N[C@@H](Cc1c[nH]c2ccccc12)C(=O)N[C@H](CC(N)=O)C(=O)N[C@@H](CC(=O)O)C(=O)N[C@@H]1C(=O)NCC(=O)N[C@@H](CCCN)C(=O)N[C@@H](CC(=O)O)C(=O)N[C@H](C)C(=O)N[C@@H](CC(=O)O)C(=O)NCC(=O)N[C@H](CO)C(=O)N[C@@H]([C@H](C)CC(=O)O)C(=O)N[C@@H](CC(=O)c2ccccc2N)C(=O)O[C@@H]1C` [Daptomycin], the Antibiotic susceptibility profile entry in the data set with CDC AR isolates [1] (setting [3]), in the data set with CDC AR isolates [1] (setting [4]), with CDC AR isolates [2] (setting [13]), in the data set with CDC AR isolates [2] (setting [14]), in the data set on CDC AR isolates [2] (setting [15]) and with CDC AR isolates [2] (setting [25]) was “S” in each case.

`CC(=O)NC[C@H]1CN(c2ccc(N3CCOCC3)c(F)c2)C(=O)O1` [Linezolid]: the Antibiotic susceptibility profile result in the data set with CDC AR isolates [1] (setting [3]), in the data set with CDC AR isolates [1] (setting [4]), in the data set with CDC AR isolates [2] (setting [13]), in the data set on CDC AR isolates [2] (setting [14]), in the data set with CDC AR isolates [2] (setting [15]) and in the data set with CDC AR isolates [2] (setting [24]) was “S” throughout. For the same compound, the Antibiotic susceptibility profile result with CDC AR isolates [2] (setting [25]) and in the data set on CDC AR isolates [2] (setting [26]) was “S” throughout.

Take `CC[C@H]1OC(=O)[C@H](C)[C@@H](O[C@H]2C[C@@](C)(OC)[C@@H](O)[C@H](C)O2)[C@H](C)[C@@H](O[C@@H]2O[C@H](C)C[C@H](N(C)C)[C@H]2O)[C@](C)(O)C[C@@H](C)C(=O)[C@H](C)[C@@H](O)[C@]1(C)O` [Erythromycin]: the Antibiotic susceptibility profile entry is “R” in the data set with CDC AR isolates [1] (setting [4]), “S” with CDC AR isolates [2] (setting [24]), “S” with CDC AR isolates [2] (setting [25]) and “I” with CDC AR isolates [2] (setting [26]).

Take `CO[C@@]1(NC(=O)Cc2cccs2)C(=O)N2C(C(=O)O)=C(COC(N)=O)CS[C@@H]21` [Cefoxitin]: the Antibiotic susceptibility profile entry in the data set with CDC AR isolates [1] (setting [4]) is recorded as “R”; with CDC AR isolates [2] (setting [9]), “R”; in the data set on CDC AR isolates [2] (setting [10]), “R”; in the data set on CDC AR isolates [2] (setting [11]) it was “R”; with CDC AR isolates [2] (setting [12]) it was “R”; in the data set with CDC AR isolates [2] (setting [16]), “S”. Besides, the Antibiotic susceptibility profile entry with CDC AR isolates [2] (setting [17]), in the data set on CDC AR isolates [2] (setting [18]), with CDC AR isolates [2] (setting [19]), in the data set with CDC AR isolates [2] (setting [20]), in the data set with CDC AR isolates [2] (setting [21]) and with CDC AR isolates [2] (setting [22]) was “R” in each case. In addition, the Antibiotic susceptibility profile entry with CDC AR isolates [2] (setting [23]), in the data set on CDC AR isolates [2] (setting [24]), in the data set with CDC AR isolates [2] (setting [25]) and with CDC AR isolates [2] (setting [26]) was “R” throughout.

As for `O=C(N[C@H](CO)[C@H](O)c1ccc([N+](=O)[O-])cc1)C(Cl)Cl` [Chloramphenicol], the Antibiotic susceptibility profile entry with CDC AR isolates [1] (setting [3]) is recorded as “S”; with CDC AR isolates [2] (setting [13]), “I”; in the data set with CDC AR isolates [2] (setting [14]), “R”; with CDC AR isolates [2] (setting [15]), “I”.

In the case of `C[C@H]1c2cccc(O)c2C(=O)C2=C(O)[C@]3(O)C(=O)C(C(N)=O)=C(O)[C@@H](N(C)C)[C@@H]3[C@@H](O)[C@@H]21` [Doxycycline], the Antibiotic susceptibility profile result in the data set on CDC AR isolates [1] (setting [3]) is reported as “S”; in the data set with CDC AR isolates [1] (setting [4]), “S”; with CDC AR isolates [2] (setting [13]), “I”; in the data set with CDC AR isolates [2] (setting [14]) it was “S”; in the data set on CDC AR isolates [2] (setting [15]), “I”; with CDC AR isolates [2] (setting [24]) it was “S”. In addition, the Antibiotic susceptibility profile entry is “S” with CDC AR isolates [2] (setting [25]) and “I” with CDC AR isolates [2] (setting [26]).

`CC1(C)S[C@@H]2[C@H](NC(=O)[C@H](N)c3ccccc3)C(=O)N2[C@H]1C(=O)O` [Ampicillin]: the Antibiotic susceptibility profile entry in the data set with CDC AR isolates [1] (setting [3]) is on record as “S”; with CDC AR isolates [2] (setting [5]), “R”; with CDC AR isolates [2] (setting [6]) it was “R”; in the data set on CDC AR isolates [2] (setting [7]), “R”; with CDC AR isolates [2] (setting [8]), “R”; with CDC AR isolates [2] (setting [9]) it was “R”. Also, the Antibiotic susceptibility profile result is given as “R” in the data set with CDC AR isolates [2] (setting [10]); “R” in the data set with CDC AR isolates [2] (setting [11]); “R” with CDC AR isolates [2] (setting [12]); “R” with CDC AR isolates [2] (setting [13]); “S” in the data set with CDC AR isolates [2] (setting [14]); “S” in the data set on CDC AR isolates [2] (setting [15]). Further, the Antibiotic susceptibility profile result in the data set with CDC AR isolates [2] (setting [16]), in the data set on CDC AR isolates [2] (setting [17]), in the data set on CDC AR isolates [2] (setting [18]), in the data set on CDC AR isolates [2] (setting [19]), in the data set with CDC AR isolates [2] (setting [20]) and in the data set on CDC AR isolates [2] (setting [21]) was “R” throughout. The Antibiotic susceptibility profile entry in the data set with CDC AR isolates [2] (setting [22]) and with CDC AR isolates [2] (setting [23]) was “R” throughout.
